Laboratory results taken from PubChem BioAssay AID1919008 (Molecular Pharmacology Branch, DTP, NCI, 2023).

Test system: DMS-114 complex spheroids with HUVEC/MSC, growth % test/control
Experiment: Anticancer human tumor DMS-114 cell line growth inhibition [AhR];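 also: spheroids exposed to agents for 7 days before readout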;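 as to viability, T/C: 100% = DMSO vehicle control wells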
Conditions: for IC50: curve of first compound; for viability, T/C: stronger effect = lower value
Procedure, shortened: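 Agents were dosed in half-log steps down from roughly clinical Cmax, or from 10 microM where Cmax was unknown, alone and with AhR antagonists. Read-out: percent test/control growth of tumor spheroids containing HUVEC and MSC stromal cells.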

[1] = second compound 0.1 µM, first compound 0.000949 µM
[2] = second compound 0.1 µM, first compound 0.003 µM
[3] = second compound 0.1 µM, first compound 0.00949 µM
[4] = second compound 0.1 µM, first compound 0.03 µM
[5] = second compound 0.1 µM, first compound 0.0949 µM
[6] = second compound 0.1 µM, first compound 0.3 µM
[7] = second compound 0.316 µM, first compound 0.000949 µM
[8] = second compound 0.316 µM, first compound 0.003 µM
[9] = second compound 0.316 µM, first compound 0.00949 µM
[10] = second compound 0.316 µM, first compound 0.03 µM
[11] = second compound 0.316 µM, first compound 0.0949 µM
[12] = second compound 0.316 µM, first compound 0.3 µM
[13] = second compound 1 µM, first compound 0.000949 µM
[14] = second compound 1 µM, first compound 0.003 µM
[15] = second compound 1 µM, first compound 0.00949 µM
[16] = second compound 1 µM, first compound 0.03 µM
[17] = second compound 1 µM, first compound 0.0949 µM
[18] = second compound 1 µM, first compound 0.3 µM
[19] = second compound 3.16 µM, first compound 0.000949 µM
[20] = second compound 3.16 µM, first compound 0.003 µM
[21] = second compound 3.16 µM, first compound 0.00949 µM
[22] = second compound 3.16 µM, first compound 0.03 µM
[23] = second compound 3.16 µM, first compound 0.0949 µM
[24] = second compound 3.16 µM, first compound 0.3 µM
[25] = second compound 10 µM, first compound 0.000949 µM
[26] = second compound 10 µM, first compound 0.003 µM
[27] = second compound 10 µM, first compound 0.00949 µM
[28] = second compound 10 µM, first compound 0.03 µM
[29] = second compound 10 µM, first compound 0.0949 µM
[30] = second compound 10 µM, first compound 0.3 µM

CC(C)CC(NC(=O)C(Cc1ccccc1)NC(=O)c1cnccn1)B(O)O (stereo not given) + Cc1cncc(-c2nc(NCCc3c[nH]c4ccccc34)c3ncn(C(C)C)c3n2)c1
IC50 (second compound 0.1 µM): 5.45 nM | IC50 (second compound 0.316 µM): 5.21 nM | IC50 (second compound 1 µM): 5.38 nM | IC50 (second compound 3.16 µM): 4.67 nM | IC50 (second compound 10 µM): < 0.949 nM | viability, T/C [1]: 113% | viability, T/C [2]: 102% | viability, T/C [3]: 2.1% | viability, T/C [4]: 0.04% | viability, T/C [5]: 0.04% | viability, T/C [6]: 0.16% | viability, T/C [7]: 102% | viability, T/C [8]: 94.3% | viability, T/C [9]: 1.97% | viability, T/C [10]: 0.04% | viability, T/C [11]: 0.03% | viability, T/C [12]: 0.15% | viability, T/C [13]: 101% | viability, T/C [14]: 99.7% | viability, T/C [15]: 1.76% | viability, T/C [16]: 0.45% | viability, T/C [17]: 0.02% | viability, T/C [18]: 0.26% | viability, T/C [19]: 93.8% | viability, T/C [20]: 80.7% | viability, T/C [21]: 0.87% | viability, T/C [22]: 0.04% | viability, T/C [23]: 0.04% | viability, T/C [24]: 0.18% | viability, T/C [25]: 37.7% | viability, T/C [26]: 28.9% | viability, T/C [27]: 0.42% | viability, T/C [28]: 0.21% | viability, T/C [29]: 0.21% | viability, T/C [30]: 0.3%

CCc1c2c(nc3ccc(O)cc13)-c1cc3c(c(=O)n1C2)COC(=O)[C@]3(O)CC + Cc1cncc(-c2nc(NCCc3c[nH]c4ccccc34)c3ncn(C(C)C)c3n2)c1
IC50 (second compound 0.1 µM): 2.07 nM | IC50 (second compound 0.316 µM): 2.21 nM | IC50 (second compound 1 µM): 2.02 nM | IC50 (second compound 3.16 µM): 1.58 nM | IC50 (second compound 10 µM): < 0.949 nM | viability, T/C [1]: 67.4% | viability, T/C [2]: 41.6% | viability, T/C [3]: 21.9% | viability, T/C [4]: 13.8% | viability, T/C [5]: 12.6% | viability, T/C [6]: 12.5% | viability, T/C [7]: 69% | viability, T/C [8]: 43.1% | viability, T/C [9]: 19.9% | viability, T/C [10]: 14.5% | viability, T/C [11]: 15.2% | viability, T/C [12]: 12.2% | viability, T/C [13]: 62.5% | viability, T/C [14]: 43.5% | viability, T/C [15]: 20.7% | viability, T/C [16]: 15.5% | viability, T/C [17]: 9.97% | viability, T/C [18]: 14.7% | viability, T/C [19]: 62.9% | viability, T/C [20]: 33.7% | viability, T/C [21]: 15% | viability, T/C [22]: 13.1% | viability, T/C [23]: 13% | viability, T/C [24]: 12.4% | viability, T/C [25]: 22.1% | viability, T/C [26]: 17.4% | viability, T/C [27]: 9.92% | viability, T/C [28]: 8.3% | viability, T/C [29]: 9% | viability, T/C [30]: 6.26%

COc1cc(Nc2ncc3c(n2)-c2ccc(Cl)cc2C(c2c(F)cccc2OC)=NC3)ccc1C(=O)O + Cc1cncc(-c2nc(NCCc3c[nH]c4ccccc34)c3ncn(C(C)C)c3n2)c1
IC50 (second compound 0.1 µM): < 31.6 nM | IC50 (second compound 0.316 µM): < 31.6 nM | IC50 (second compound 1 µM): < 31.6 nM | IC50 (second compound 3.16 µM): < 31.6 nM | IC50 (second compound 10 µM): < 31.6 nM | viability, T/C (second compound 0.1 µM, first compound 0.0316 µM): 34.3% | viability, T/C (second compound 0.1 µM, first compound 0.1 µM): 23.1% | viability, T/C (second compound 0.1 µM, first compound 0.316 µM): 44.3% | viability, T/C (second compound 0.1 µM, first compound 1 µM): 53.2% | viability, T/C (second compound 0.1 µM, first compound 3.16 µM): 65.4% | viability, T/C (second compound 0.1 µM, first compound 10 µM): 72.5% | viability, T/C (second compound 0.316 µM, first compound 0.0316 µM): 28.4% | viability, T/C (second compound 0.316 µM, first compound 0.1 µM): 22.3% | viability, T/C (second compound 0.316 µM, first compound 0.316 µM): 40.9% | viability, T/C (second compound 0.316 µM, first compound 1 µM): 62.1% | viability, T/C (second compound 0.316 µM, first compound 3.16 µM): 61.6% | viability, T/C (second compound 0.316 µM, first compound 10 µM): 64.6% | viability, T/C (second compound 1 µM, first compound 0.0316 µM): 30.1% | viability, T/C (second compound 1 µM, first compound 0.1 µM): 21.3% | viability, T/C (second compound 1 µM, first compound 0.316 µM): 41.7% | viability, T/C (second compound 1 µM, first compound 1 µM): 66% | viability, T/C (second compound 1 µM, first compound 3.16 µM): 61.7% | viability, T/C (second compound 1 µM, first compound 10 µM): 70.5% | viability, T/C (second compound 3.16 µM, first compound 0.0316 µM): 24.5% | viability, T/C (second compound 3.16 µM, first compound 0.1 µM): 14.9% | viability, T/C (second compound 3.16 µM, first compound 0.316 µM): 36.3% | viability, T/C (second compound 3.16 µM, first compound 1 µM): 57.2% | viability, T/C (second compound 3.16 µM, first compound 3.16 µM): 69.8% | viability, T/C (second compound 3.16 µM, first compound 10 µM): 63% | viability, T/C (second compound 10 µM, first compound 0.0316 µM): 16.4% | viability, T/C (second compound 10 µM, first compound 0.1 µM): 8.12% | viability, T/C (second compound 10 µM, first compound 0.316 µM): 19% | viability, T/C (second compound 10 µM, first compound 1 µM): 34.3% | viability, T/C (second compound 10 µM, first compound 3.16 µM): 32.4% | viability, T/C (second compound 10 µM, first compound 10 µM): 38.4%
